Earlier results on four compounds are cited in patent publication US10300299B2, “Advanced methods and systems for treating cell proliferation disorders” (priority 2008, dated 2019).

For data set [1], the system named is rapidly dividing tissue. Conditions: in vivo.
Test in data set [2]: not given
This is another data set of the same source.

Test in data set [3]: not given
The source holds these as a separate data set.

For `Oc1cccc(-c2c3nc(c(-c4cccc(O)c4)c4ccc([nH]4)c(-c4cccc(O)c4)c4nc(c(-c5cccc(O)c5)c5ccc2[nH]5)CC4)C=C3)c1` [Foscan, Tetra (m-hydroxyphenyl) chlorin], the “duration of skin photosensitivity” value is reported as “approximately 2 weeks”. For the same compound, where the note is “Table 3, known photosensitizers”, the Length of photosensitization is given as 2 weeks. Turning to `C/C1=C2/[N-][C@H]([C@H](CC(N)=O)[C@@]2(C)CCC(=O)NC[C@@H](C)OP(=O)([O-])O[C@H]2[C@@H](O)[C@@H](n3cnc4cc(C)c(C)cc43)O[C@@H]2CO)[C@]2(C)N=C(/C(C)=C3N=C(/C=C4N=C1[C@@H](CCC(N)=O)C\4(C)C)[C@@H](CCC(N)=O)[C@]\3(C)CC(N)=O)[C@@H](CCC(N)=O)[C@]2(C)CC(N)=O.[CH3-].[Co+3]` [methylcobalamin], the “uptake in rapidly dividing tissue” value in data set [1] is “increased uptake”. Regarding Cobalt-57-cyanocobalamin, the “uptake in rapidly dividing tissue” value in data set [1] is recorded as “increased uptake”. Consider Vitamin B12, for which, in data set [2] (in excess), the excretion result is listed as “excreted by gloinerular filtration”. Besides, in data set [2] (in vivo), the toxicity entry is reported as “no known toxicity”. In addition, the water solubility entry in data set [3] is reported as “water soluble”.
